Data taken from ChEMBL document CHEMBL1151125, “Constituents of Michelia Rajaniana. Two new germacranolide amides” (1988).

Columns and labels:
Assay type in all cases: functional
Conditions in all cases: read-out: ED50 (the source's name)
A549 = assay: Cytotoxicity against human A549 cells
MCF7 = assay: Cytotoxicity against human MCF7 cells
HT-29 = assay: Cytotoxicity against human HT-29 cells

Measured: EC50

CC(=O)NC[C@@H]1C(=O)O[C@H]2[C@H]1[C@@H](O)C/C(C)=C/CC[C@@]1(C)O[C@@H]21
> 100 µg/mL: all assays above

CC(=O)NC[C@@H]1C(=O)O[C@H]2[C@H]1CC/C(C)=C/CC[C@@]1(C)O[C@@H]21
> 100 µg/mL: all assays above
